# Experimental data published in patent US20200369630A1, “HERBICIDALLY ACTIVE 3-PHENYL-5-TRIFLUOROMETHYLISOXAZOLINE-5-CARBOXAMIDES OF CYCLOPENTYLCARBOXYLIC ACIDS AND ESTERS” (Bayer Aktiengesellschaft, priority 2017, published 2020).
# Tests used:
# Type in all cases: in vivo
# SETVI: Setaria viridis [1] = assay: Pre-emergence herbicidal action
# Text: (§1) Seeds of monocotyledonous and dicotyledonous weed plants and crop plants are placed in plastic or wood fiber pots and covered with soil. The compounds of the invention, formulated in the form of wettable powders (WP) or as emulsion concentrates (EC), are then applied onto the surface of the covering soil as aqueous suspension or emulsion with addition of 0.5% additive at a water application rate of […] (converted). After the treatment, the pots are placed in a greenhouse and kept under good growth conditions for the trial plants. After about 3 weeks, the effect of the preparations is scored visually in comparison with untreated controls as percentages. For example, 100% activity=the plants have died, 0% activity=like control plants. [table]
# VIOTR: Viola tricolor [2] = assay: Pre-emergence herbicidal action
# Text: as §1
# [3] = test system: AMARE: Amaranthus retroflexus; assay: Pre-emergence herbicidal action
# Text: as §1
# VERPE: Veronica persica [4] = assay: Pre-emergence herbicidal action
# Text: as §1
# AVEFA: Avena fatua [5] = assay: Pre-emergence herbicidal action
# Text: as §1
# [6] = test system: ALOMY: Alopecurus myosuroides; assay: Pre-emergence herbicidal action
# Text: as §1
# STEME: Stellaria media [7] = assay: Pre-emergence herbicidal action
# Text: as §1
# [8] = test system: ABUTH: Abutilon theophrasti; assay: Post-emergence herbicidal action; conditions: Second Table C3, superiority with respect to WO 2012/130798, post-emergence, 80 g/ha
# Protocol: (§2) [table] Seeds of monocotyledonous and dicotyledonous weeds and crop plants are placed in sandy loam in plastic or wood-fiber pots, covered with soil and cultivated in a greenhouse under controlled growth conditions. 2 to 3 weeks after sowing, the test plants are treated at the one-leaf stage. The compounds of the invention, formulated in the form of wettable powders (WP) or as emulsion concentrates (EC), are then sprayed onto the green parts of the plants as aqueous suspension or emulsion with addition of 0.5% additive at a water application rate of […] (converted). After the test plants had been kept in the greenhouse under optimum growth conditions for about 3 weeks, the activity of the preparations is rated visually in comparison to untreated controls. For example, 100% activity=the plants have died, 0% activity=like control plants.
# STEME: Stellaria media [9] = assay: Post-emergence herbicidal action
# Protocol: as §2
# LOLRI: Lolium rigidum [10] = assay: Pre-emergence herbicidal action; conditions: Table C1, pre-emergence, 80 g/ha, scored visually after about 3 weeks
# Text: as §1
# [11] = test system: ECHCG: Echinochloa crus-galli; assay: Pre-emergence herbicidal action; conditions: Table C1, pre-emergence, 80 g/ha, scored visually after about 3 weeks
# Text: as §1
# HORMU: Hordeum murinum [12] = assay: Pre-emergence herbicidal action; conditions: Table C1, pre-emergence, 80 g/ha, scored visually after about 3 weeks
# Text: as §1
# [13] = test system: MATIN: Matricaria inodora; assay: Pre-emergence herbicidal action; conditions: Table C1, pre-emergence, 80 g/ha, scored visually after about 3 weeks
# Text: as §1
# [14] = test system: POLCO: Polygonum convolvulus; assay: Pre-emergence herbicidal action; conditions: Table C1, pre-emergence, 80 g/ha, scored visually after about 3 weeks
# Text: as §1
# [15] = test system: ABUTH: Abutilon theophrasti; assay: Pre-emergence herbicidal action; conditions: Table C1, pre-emergence, 80 g/ha, scored visually after about 3 weeks
# Text: as §1
# PHBPU: Ipomoea purpurea = assay: Pre-emergence herbicidal action; conditions: Table C1, pre-emergence, 80 g/ha, scored visually after about 3 weeks
# Text: as §1
# LOLRI: Lolium rigidum [16] = assay: Post-emergence herbicidal action; conditions: rated visually after about 3 weeks
# Protocol: as §2
# [17] = test system: AMARE: Amaranthus retroflexus; assay: Post-emergence herbicidal action; conditions: rated visually after about 3 weeks
# Protocol: as §2
# HORMU: Hordeum murinum [18] = assay: Post-emergence herbicidal action; conditions: rated visually after about 3 weeks
# Protocol: as §2
# [19] = test system: POLCO: Polygonum convolvulus; assay: Post-emergence herbicidal action; conditions: rated visually after about 3 weeks
# Protocol: as §2
# [20] = test system: ALOMY: Alopecurus myosuroides; assay: Post-emergence herbicidal action; conditions: rated visually after about 3 weeks
# Protocol: as §2
# SETVI: Setaria viridis [21] = assay: Post-emergence herbicidal action; conditions: Table C3, post-emergence, 320 g/ha, rated visually after about 3 weeks
# Protocol: as §2
# VIOTR: Viola tricolor [22] = assay: Post-emergence herbicidal action; conditions: Table C3, post-emergence, 320 g/ha, rated visually after about 3 weeks
# Protocol: as §2
# [23] = test system: ECHCG: Echinochloa crus-galli; assay: Post-emergence herbicidal action; conditions: rated visually after about 3 weeks
# Protocol: as §2
# VERPE: Veronica persica [24] = assay: Post-emergence herbicidal action; conditions: rated visually after about 3 weeks
# Protocol: as §2
# AVEFA: Avena fatua [25] = assay: Post-emergence herbicidal action; conditions: rated visually after about 3 weeks
# Protocol: as §2
# DIGSA = assay: Post-emergence herbicidal action; conditions: Table C3, post-emergence, 320 g/ha, rated visually after about 3 weeks
# Protocol: as §2, with “Seeds” for “[table] Seeds”
# [26] = Second Table C4, superiority with respect to WO 2012/130798, pre-emergence, 20 g/ha
# [27] = Table C1, pre-emergence, 80 g/ha, scored visually after about 3 weeks
# [28] = Table C4, post-emergence, 320 g/ha
# [29] = Table C3, post-emergence, 320 g/ha
# [30] = Table C2, post-emergence, dosage 320 (0.32 kg of active substance per hectare)
smiles,measurement,setting,value
"CCOC(=O)C1CCC(NC(=O)C2(C)CC(c3cc(F)cc(F)c3)=NO2)C1 (centres unmarked) [Example 6.736, reference compound]",Herbicidal action against [%] SETVI,SETVI: Setaria viridis [1]; [26],20%
same,Herbicidal action against [%] VIOTR,VIOTR: Viola tricolor [2]; [26],0%
same,Herbicidal action against [%] AMARE,[3]; [26],0%
same,Herbicidal action against [%] VERPE,VERPE: Veronica persica [4]; [26],70%
same,Herbicidal action against [%] AVEFA,AVEFA: Avena fatua [5]; [26],50%
same,Herbicidal action against [%] ALOMY,[6]; [26],70%
same,Herbicidal action against [%] STEME,STEME: Stellaria media [7]; [26],50%
same,Herbicidal action against [%] ABUTH,[8],60%
same,Herbicidal action against [%] STEME,"STEME: Stellaria media [9]; Second Table C3, superiority with respect to WO 2012/130798, post-emergence, 80 g/ha",50%
"CCOC(=O)[C@@H]1CC[C@H](NC(=O)[C@@]2(C(F)(F)F)CC(c3cc(F)cc(F)c3)=NO2)C1 [Example I-39, ethyl (1R,3S)-3-({[(5R)-3-(3,5-difluorophenyl)-5-(trifluoromethyl)-4,5-dihydro-1,2-oxazol-5-yl]carbonyl}amino)cyclopentanecarboxylate]",Herbicidal action against [%] SETVI,SETVI: Setaria viridis [1]; [27],100%
same,Herbicidal action against [%] VIOTR,VIOTR: Viola tricolor [2]; [27],100%
same,Herbicidal action against [%] LOLRI,LOLRI: Lolium rigidum [10],100%
same,Herbicidal action against [%] AMARE,[3]; [27],100%
same,Herbicidal action against [%] ECHCG,[11],100%
same,Herbicidal action against [%] HORMU,HORMU: Hordeum murinum [12],90%
same,Herbicidal action against [%] MATIN,[13],90%
same,Herbicidal action against [%] POLCO,[14],100%
same,Herbicidal action against [%] ABUTH,[15],70%
same,Herbicidal action against [%] PHBPU,PHBPU: Ipomoea purpurea,80%
same,Herbicidal action against [%] AVEFA,AVEFA: Avena fatua [5]; [27],100%
same,Herbicidal action against [%] ALOMY,[6]; [27],100%
same,Herbicidal action against [%] LOLRI,LOLRI: Lolium rigidum [16]; [28],90%
same,Herbicidal action against [%] AMARE,[17]; [28],80%
same,Herbicidal action against [%] HORMU,HORMU: Hordeum murinum [18]; [28],100%
same,Herbicidal action against [%] POLCO,[19]; [28],80%
same,Herbicidal action against [%] ALOMY,[20]; [28],100%
CCOC(=O)C1CCC(NC(=O)C2(C(F)(F)F)CC(c3cc(C)cc(Cl)c3)=NO2)C1 (mixture of isomers) [Example I-808],Herbicidal action against [%] SETVI,SETVI: Setaria viridis [21],90%
same,Herbicidal action against [%] VIOTR,VIOTR: Viola tricolor [22],80%
same,Herbicidal action against [%] LOLRI,LOLRI: Lolium rigidum [16]; [29],90%
same,Herbicidal action against [%] AMARE,[17]; [29],80%
same,Herbicidal action against [%] ECHCG,[23]; [29],80%
same,Herbicidal action against [%] HORMU,HORMU: Hordeum murinum [18]; [29],90%
same,Herbicidal action against [%] VERPE,VERPE: Veronica persica [24]; [29],90%
same,Herbicidal action against [%] POLCO,[19]; [29],100%
same,Herbicidal action against [%] AVEFA,AVEFA: Avena fatua [25]; [29],90%
same,Herbicidal action against [%] ALOMY,[20]; [29],90%
same,Herbicidal action against [%] DIGSA,DIGSA,90%
Cc1cc(F)cc(C2=NOC(C(=O)NC3CCC(C(=O)OCCCl)C3)(C(F)(F)F)C2)c1 (mixture of isomers) [Example I-574],Herbicidal action against [%] SETVI,SETVI: Setaria viridis [21],90%
same,Herbicidal action against [%] VIOTR,VIOTR: Viola tricolor [22],80%
same,Herbicidal action against [%] LOLRI,LOLRI: Lolium rigidum [16]; [29],90%
same,Herbicidal action against [%] AMARE,[17]; [29],100%
same,Herbicidal action against [%] ECHCG,[23]; [29],90%
same,Herbicidal action against [%] HORMU,HORMU: Hordeum murinum [18]; [29],80%
same,Herbicidal action against [%] VERPE,VERPE: Veronica persica [24]; [29],90%
same,Herbicidal action against [%] POLCO,[19]; [29],80%
same,Herbicidal action against [%] AVEFA,AVEFA: Avena fatua [25]; [29],100%
same,Herbicidal action against [%] ALOMY,[20]; [29],100%
same,Herbicidal action against [%] DIGSA,DIGSA,80%
Cc1cc(F)cc(C2=NOC(C(=O)NC3CCC(C(=O)OCC(F)(F)F)C3)(C(F)(F)F)C2)c1 (mixture of isomers) [Example I-580],Herbicidal action against [%] SETVI,SETVI: Setaria viridis [21],90%
same,Herbicidal action against [%] VIOTR,VIOTR: Viola tricolor [22],100%
same,Herbicidal action against [%] LOLRI,LOLRI: Lolium rigidum [16]; [29],90%
same,Herbicidal action against [%] AMARE,[17]; [29],90%
same,Herbicidal action against [%] ECHCG,[23]; [29],80%
same,Herbicidal action against [%] HORMU,HORMU: Hordeum murinum [18]; [29],90%
same,Herbicidal action against [%] VERPE,VERPE: Veronica persica [24]; [29],90%
same,Herbicidal action against [%] POLCO,[19]; [29],80%
same,Herbicidal action against [%] AVEFA,AVEFA: Avena fatua [25]; [29],100%
same,Herbicidal action against [%] ALOMY,[20]; [29],90%
same,Herbicidal action against [%] DIGSA,DIGSA,90%
O=C(OCCCl)C1CCC(NC(=O)C2(C(F)(F)F)CC(c3cc(F)cc(F)c3)=NO2)C1 (mixture of isomers) [Example I-99],Herbicidal action against [%] SETVI,SETVI: Setaria viridis [1]; [27],100%
same,Herbicidal action against [%] VIOTR,VIOTR: Viola tricolor [2]; [27],100%
same,Herbicidal action against [%] LOLRI,LOLRI: Lolium rigidum [10],100%
same,Herbicidal action against [%] AMARE,[3]; [27],100%
same,Herbicidal action against [%] ECHCG,[11],90%
same,Herbicidal action against [%] HORMU,HORMU: Hordeum murinum [12],100%
same,Herbicidal action against [%] VERPE,VERPE: Veronica persica [4]; [27],100%
same,Herbicidal action against [%] MATIN,[13],80%
same,Herbicidal action against [%] ABUTH,[15],80%
same,Herbicidal action against [%] PHBPU,PHBPU: Ipomoea purpurea,90%
same,Herbicidal action against [%] AVEFA,AVEFA: Avena fatua [5]; [27],90%
same,Herbicidal action against [%] ALOMY,[6]; [27],100%
same,Herbicidal action against [%] STEME,STEME: Stellaria media [7]; [27],100%
same,Herbicidal action against [%] LOLRI,LOLRI: Lolium rigidum [16]; [30],100%
same,Herbicidal action against [%] AMARE,[17]; [30],90%
same,Herbicidal action against [%] ECHCG,[23]; [30],90%
same,Herbicidal action against [%] HORMU,HORMU: Hordeum murinum [18]; [30],90%
same,Herbicidal action against [%] VERPE,VERPE: Veronica persica [24]; [30],90%
same,Herbicidal action against [%] POLCO,[19]; [30],80%
same,Herbicidal action against [%] AVEFA,AVEFA: Avena fatua [25]; [30],90%
same,Herbicidal action against [%] ALOMY,[20]; [30],90%
same,Herbicidal action against [%] STEME,"STEME: Stellaria media [9]; Table C2, post-emergence, dosage 320 (0.32 kg of active substance per hectare), rated visually after about 3 weeks",90%
COC(=O)C1CCC(NC(=O)C2(C(F)(F)F)CC(c3cc(C)cc(F)c3)=NO2)C1 (mixture of isomers) [Example I-537],Herbicidal action against [%] SETVI,SETVI: Setaria viridis [21],90%
same,Herbicidal action against [%] VIOTR,VIOTR: Viola tricolor [22],100%
same,Herbicidal action against [%] LOLRI,LOLRI: Lolium rigidum [16]; [29],90%
same,Herbicidal action against [%] AMARE,[17]; [29],100%
same,Herbicidal action against [%] ECHCG,[23]; [29],100%
same,Herbicidal action against [%] HORMU,HORMU: Hordeum murinum [18]; [29],80%
same,Herbicidal action against [%] VERPE,VERPE: Veronica persica [24]; [29],100%
same,Herbicidal action against [%] POLCO,[19]; [29],90%
same,Herbicidal action against [%] AVEFA,AVEFA: Avena fatua [25]; [29],90%
same,Herbicidal action against [%] ALOMY,[20]; [29],90%
same,Herbicidal action against [%] DIGSA,DIGSA,90%
